Like-named read-outs stand apart in the source and are kept apart here.
Tests used:
dsDNA (20 mer) = test: Emission intensity of dye with equimolar dsDNA relative to free dye (fluorescence spectrometer); conditions: for direction of change in emission intensity upon addition of DNA / effect of ssDNA and dsDNA on dye emission: FIG. 2; for Free dye rel. to dsDNA: equimolar dsDNA (20 mer), emission intensity ratio
Excerpt: (§1) FIG. 2 illustrates the effect of ssDNA and dsDNA on dye emission. […] All the dyes reported here show a larger change in emission intensity upon the addition of dsDNA than they do upon the addition of ssDNA; in some cases (GA, 95) this change is positive, in others it is negative (HE, HE-HE, FI).
Emission intensities of the fluorescent dyes of the present invention and TOTO-1™ at 1×10^−5 M in 1×PCR buffer were compared in the absence of DNA (free dye emission) and in the presence of equimolar dsDNA or ssDNA (20 mer) on the fluorescence spectrometer. […]

ssDNA (20 mer) = test: Emission intensity of dye with equimolar ssDNA relative to free dye (fluorescence spectrometer); conditions: dye 1×10^−5 M in 1×PCR buffer; for change of the emission intensity in the presence of ssDNA: equimolar ssDNA; for Free dye rel. to ssDNA: equimolar ssDNA (20 mer), emission intensity ratio
Excerpt: as §1
Emission intensities of the fluorescent dyes of the present invention and TOTO-1™ at 1×10^−5 M in 1×PCR buffer were compared in the absence of DNA (free dye emission) and in the presence of equimolar dsDNA or ssDNA (20 mer) on the fluorescence spectrometer.
The fluorescent dyes of the present invention have a large Stokes shift allowing the use of less sophisticated equipment for the detection of the emission intensity.

[1] = Fluorescence excitation and emission spectra of the dyes in buffer (Fluorolog-3 spectrometer); format: physicochemical; parameters: key to Excitation max. / Emission max.: peak wavelengths in nm
Excerpt: The fluorescence of the exemplary fluorescent dyes in buffer was examined on a Fluorolog®-3 (a trademark of Spex Industries Inc.) spectrometer. The fluorescent dyes of the present invention have large Stokes shifts; the excitation and emission maxima are close to or greater than 100 nm apart. Peak wavelengths are tabulated in Table 2 along with two commercially available fluorescent dyes, TOTO-1TM and YO-[…]TM (trademarks of Molecular Probes, Inc.). The Stokes shifts of TOTO-1TM and YO-[…]TM are small in comparison to the dyes of the present invention.

[2] = Stokes shift of MH dyes (FIG. 4); format: physicochemical
Excerpt: Unlike Fluorescein and other commercially available dyes whose peak excitation and emission wavelengths are extremely close the MH dyes have ˜200 nm between peaks.

dsDNA [3] = test: Titration of dyes with dsDNA in 96-well microplate (sensitivity and dynamic range, SpectraMax Gemini plate reader)
Description: The fluorescent dyes shown in Table 5 were titrated with dsDNA in order to determine the sensitivity (lowest detection limit) and dynamic range. A 96-well polystyrene Corning Costar® (a trademark of Corning Incorporated) microwell plate was loaded with 100 μL/well of dye mixed with various levels of dsDNA and incubated at room temperature for 2 hours allowing the mixture to equillibrate. The dye fluorescence was then measured on a SpectraMax® (a trademark of Molecular Devices Corp.) Gemini Plate-reader. Relative fluorescence units (RFU) were then plotted against DNA concentration in pg/μL.

dsDNA [4] = test: ssDNA/dsDNA selectivity in the plate reader assay (FIG. 3)
Excerpt: FIG. 3 illustrates the ssDNA/dsDNA selectivity of the fluorescent dyes of the present invention, HE-HE and 95, versus the commercially available fluorescent dye TOTO-1™ in the plate reader assay. […] By learning more about the binding modes of the disclosed dyes, it should be possible to design and synthesize members of the family optimized for dsDNA detection.

[5] = commercial dye data from Molecular Probes catalog; cited from earlier work
[6] = system: double-stranded DNA (dsDNA); conditions: on a microplate reader; cited from earlier work
[7] = dye 1×10^−5 M in 1×PCR buffer, equimolar dsDNA

SMILES	direction of change in emission intensity upon addition of DNA (dsDNA (20 mer))	Free dye rel. to dsDNA (dsDNA (20 mer); dye 1×10^−5 M in 1×PCR buffer)	Free dye rel. to ssDNA (ssDNA (20 mer))	Emission max. [1]	Excitation max. [1]	Stokes shift [1] [nm]	ssDNA/dsDNA selectivity (dsDNA [4])	further results
C[n+]1c(/C=C/c2ccc(SCCO)cc2)sc2ccccc21 [FI]	negative	28.7	0.98	546	382	164	–	effect of ssDNA and dsDNA on dye emission (dsDNA (20 mer)): most pronounced; change of the emission intensity in the presence of dsDNA (dsDNA (20 mer); [7]): 28.7 times; change of the emission intensity in the presence of ssDNA (ssDNA (20 mer)): very little change
O=C([O-])c1ccc(-c2ccc(/C=C/c3ccc(N(CCO)CCO)cc3)s2)s1.[Na+] [MH3]	–	–	–	–	–	–	–	Stokes shift (between peak excitation and emission wavelengths) [2]: ~200 nm
C[n+]1c(/C=C/c2ccc(OCCOCCOCCOc3ccc(/C=C/c4sc5ccccc5[n+]4C)cc3)cc2)sc2ccccc21 [HE-HE]	negative	13.5	1.19	616	400	216	only slightly more sensitive towards dsDNA than ssDNA	effect of ssDNA and dsDNA on dye emission (dsDNA (20 mer)): most pronounced; change of the emission intensity in the presence of dsDNA (dsDNA (20 mer); [7]): 13.5 times; dynamic range compared with TOTO-1™ (dsDNA [3]): greater dynamic range; sensitivity compared with TOTO-1™ (dsDNA [3]): more sensitive
C[n+]1c(/C=C/c2ccc(N(CCO)CCO)cc2)sc2ccccc21 [Dye 95]	positive	–	–	585	500	85	significant preference for dsDNA	dynamic range compared with TOTO-1™ (dsDNA [3]): larger dynamic range; sensitivity compared with TOTO-1™ (dsDNA [3]): comparable
COc1ccc(/C=C/c2sc3ccccc3[n+]2C)cc1 [HE]	negative	–	–	500	385	115	–	–
CN(C)c1ccc(/C=C/c2ccc(C(=O)[O-])s2)cc1.[Li+] [MH1]	–	–	–	–	–	–	–	Stokes shift (between peak excitation and emission wavelengths) [2]: ~200 nm
CN1C(=CC=Cc2cc[n+](CCC[N+](C)(C)C)c3ccccc23)Oc2ccccc21.[I-].[I-] [YO-PRO-3 ™]	–	–	–	–	–	–	–	Emission max. [5]: 631; Excitation max. [5]: 612; Stokes shift [5]: 19 nm
CN(CCO)c1ccc(/C=C/c2sc3ccccc3[n+]2C)cc1 [GA]	positive	–	–	587	512	75	–	–
CN(C)CCCN(CCCN(C)C)c1cc(C=C2Sc3ccccc3N2C)c2ccccc2[n+]1-c1ccccc1 [PicoGreen™]	–	–	–	–	–	–	–	dynamic range [6]: ~3 orders of magnitude; sensitivity for double-stranded DNA (dsDNA) [6]: 250 pg/mL
CN1/C(=C/c2cc[n+](CCC[N+](C)(C)CCC[N+](C)(C)CCC[n+]3ccc(/C=C4\Sc5ccccc5N4C)c4ccccc43)c3ccccc23)Sc2ccccc21.[I-].[I-].[I-].[I-] [TOTO-1™, reference compound]	–	0.003	0.95	–	–	–	superior selectivity	change of the emission intensity upon interaction with dsDNA (dsDNA (20 mer); [7]): ~3 orders of magnitude; Emission max. [5]: 533; Excitation max. [5]: 514; Stokes shift [5]: 19 nm; change of the emission intensity in the presence of ssDNA (ssDNA (20 mer)): very little change

— US7781187B2, “Fluorescent dyes” (Corning Incorporated, priority 2005, dated 2010)
